Experimental data: patent US20210177879A1, “VITAMIN D RECEPTOR AGONIST” (Guanghzou University of Chinese Medicine, priority 2018, published 2021)

Experiments:
Type in all cases: in vivo, Balb/c mice
[1] = system: vitamin D receptor; test: Expression of vitamin D receptor in colon tissues, Experiment 2 (Western blot, immunohistochemistry); conditions: compared with the blank group; VD3 0.2 mg/kg, four compounds 2 mg/kg
Experimental: Experimental method: 70 Balb/c mice of 6-8 weeks were purchased from the Experimental Animal Center in Guangzhou University of Chinese Medicine, weighed about 18-22 g, and subjected to adaptive feeding for 10 days. Modeling was divided into three stages. In the first stage, except for the normal group of animals being given saline injection, each of the other animals were intraperitoneally injected with a carcinogen AOM (10 mg/kg), and given free access to 2% DSS water from the next day for 7 days, and then given access to replaced regular drinking water for 14 days. In the second stage, the animals were given free access to 2% DSS water for 10 days, and then given access to replaced regular drinking water for 14 days. In the third stage, the animals were given free access to 2% DSS water for 10 days, and then given access to replaced regular drinking water for 11 days. The normal group was given access to regular drinking water throughout the experiment. The diet, water drinking and body weights of the animals were recorded daily and DAI scores were made, and the animals were killed and harvested at the 10th week. In this experiment, the animals were divided into groups and administrated on the first day of a modeling period of the second stage, where a total of 7 groups were set, each group including 10 animals. The first group was a blank control group (control) that was given access to drinking water by gavage; the second group was a model group (model), in which a total of 10 animals were given access to drinking water by gavage; the third group was a vitamin D3 positive administration control group (VD3, 0.2 mg/kg); and the fourth to seventh groups were given monotropein, desacetyl asperulosidic acid, asperuloside, and asperulosidic acid (groups labeled as: Mo, As, Aa, Da), respectively at a given dose of 2 mg/kg. Dosing was conducted once a day until the end of the experiment. At the end of the experiment, the animals were anesthetized and harvested, and the colon tissue was taken, measured with a ruler for the length, and measured with a vernier caliper for the thickness. The effects of monotropein, desacetyl asperulosidic acid, asperuloside and asperulosidic acid on expression of the vitamin D receptor were detected.

[2] = system: peripheral blood macrophages; test: Typing of peripheral blood macrophages by flow cytometry; conditions: compared with normal group
Experimental: Experimental method: 90 Balb/c mice of 6-8 weeks were purchased from the Experimental Animal Center in Guangzhou University of Chinese Medicine, weighed about 18-22 g, and subjected to adaptive feeding for 10 days. Modeling was divided into three stages. In the first stage, except for the normal group of animals being given saline injection, each of the other animals were intraperitoneally injected with a carcinogen AOM (10 mg/kg), and given free access to 2% DSS water from the next day for 7 days, and then given access to replaced regular drinking water for 14 days. In the second stage, the animals were given free access to 2% DSS water for 10 days, and then given access to replaced regular drinking water for 14 days. In the third stage, the animals were given free access to 2% DSS water for 10 days, and then given access to replaced regular drinking water for 11 days. The normal group was given access to regular drinking water throughout the experiment. The diet, water drinking and body weights of the animals were recorded daily and DAI scores were made, and the animals were killed and harvested at the 10th week. In this experiment, the animals were divided into groups and administrated on the first day of a modeling period of the second stage, and the total number of groups was set to 5 groups. […] Dosing was conducted daily until dissection. […]

[3] = system: intestinal permeability; test: Determination of intestinal permeability in serum with FITC-dextran; conditions: after third stage of modeling; monotropein high and low doses, 5-ASA 100 mg/kg
Experimental: Experimental method: 90 Balb/c mice of 6-8 weeks were purchased from the Experimental Animal Center in Guangzhou University of Chinese Medicine, weighed about 18-22 g, and subjected to adaptive feeding for 10 days. Modeling was divided into three stages. In the first stage, except for the normal group of animals being given saline injection, each of the other animals were intraperitoneally injected with a carcinogen AOM (10 mg/kg), and given free access to 2% DSS water from the next day for 7 days, and then given access to replaced regular drinking water for 14 days. In the second stage, the animals were given free access to 2% DSS water for 10 days, and then given access to replaced regular drinking water for 14 days. In the third stage, the animals were given free access to 2% DSS water for 10 days, and then given access to replaced regular drinking water for 11 days. […] The diet, water drinking and body weights of the animals were recorded daily and DAI scores were made, and the animals were killed and harvested at the 10th week. […] 25 μl of serum was taken and added with 100 μl PBS, and determined on a microplate reader for its fluorescence intensity, where the wavelength of the exciting light was 480 nm, and the wavelength of the emitting light was 520 nm. A standard curve was made and the sample concentration was calculated.

O=C(O)C1=CO[C@@H](O[C@@H]2O[C@H](CO)[C@@H](O)[C@H](O)[C@H]2O)[C@H]2[C@@H]1C=C[C@]2(O)CO [monotropein]
expression of the vitamin D receptor in the colon tissues (Western blot and immunohistochemistry) [1]: promote expression enhancement | M1/M2 ratio of peripheral blood macrophages [2]: up-regulating trend | intestinal permeability (FITC-dextran in serum) vs model group [3]: significant differences
